Results reported in PubChem BioAssay AID434955 (Southern Research Specialized Biocontainment Screening …, 2010).

System: M. tuberculosis H37Rv growth with meropenem, percent inhibition
Assay: beta-lactam sensitization of Mtb H37Rv, H37Rv (AID 434955)

| Compound | IC90 [µM] |
| --- | --- |
| CC(C)(C)C1=Nn2c(nnc2-c2ccccc2F)SC1 | 78.3 |
| O=C(CCNc1ccccc1)c1cccc([N+](=O)[O-])c1 | 45.8 |
| CN(C)C1=C(Cl)C(=O)N(c2ccc(Cl)c(Cl)c2)C1=O | 14.9 |
| COC(=O)Cn1c2ccccc2c2nc(C)sc21 | 27.8 |
| CCCCNC(=O)c1onc(CSc2ccc(OC)cc2)c1C(=O)O | 27.2 |
| COc1ccc(C2(CNC(=O)c3cc([N+](=O)[O-])cc([N+](=O)[O-])c3)CCCC2)cc1OC | 1.61 |
| CCOC(=O)COc1ccc2nsnc2c1 | 26 |
| CC1(C)CCN2CCC(C)(C)c3c(O)ccc1c32 | 49.3 |
| Nc1ccc(C(=O)O)c(O)c1 | 1.88 |
| CCCCNC(=O)c1onc(CSc2ccccc2C)c1C(=O)O | 50.6 |
| C=CCc1cc(Cl)ccc1OCCCNC(C)CC (stereo not drawn) | 51.3 |
| CCOC(=O)c1nc(N2CCN(C(=O)OCC)CC2)c2c3c(sc2n1)CCCC3 | 40.9 |
| Cc1cc(C(=O)CSc2nnnn2-c2ccccc2)c(C)n1-c1ccc2c(c1)OCO2 | 60.9 |
| COc1ccc(-c2csc(NC(CO)c3nc4ccccc4n3Cc3ccc(C)cc3)n2)cc1 (stereo not drawn) | 26.4 |
| O=C(NCc1nc2ncc(Br)cc2[nH]1)c1ccccc1 | 54.9 |
| Cc1cccc(N2CCN(CC3CCCCC3)CC2)c1C | 53.2 |
| NNC(=S)NC1CC2CC1C1C=CCC21 (stereo not drawn) | 13.5 |
| CCCC(C)NC(=O)c1ccc(OCc2ccc(Cl)cc2)c(OC)c1 (stereo not drawn) | 11.6 |
| COc1ccc(NC(C)C(=O)N/N=C/c2ccc([N+](=O)[O-])s2)cc1 (stereo not drawn) | 4.79 |
| CC(C)(C)c1nn(-c2ccccc2)c2[nH]c(=O)c(CNc3ccc4c(c3)OCCO4)cc12 | 99.7 |
| CC(NC(=O)CSc1nc2ccccc2c(=O)[nH]1)c1ccccc1 (stereo not drawn) | 60.9 |
| CCOc1ccc2c(c1)c(C(C)=O)c(C)n2-c1ccccc1 | 1.96 |
| CCOC(=O)c1c(NC(=O)COC(=O)c2ncc(Cl)c(Cl)c2Cl)sc(C(=O)N(C)C)c1C | 27.7 |

| Compound | IC90 [µM] |
| --- | --- |
| Cc1ccccc1NC(=O)/C(C#N)=C\c1cc(C)n(-c2ccc(C(=O)O)cc2)c1C | 51.1 |
| CCc1cc(C(N)=S)ccn1 | 12.8 |
| Cc1cc(=O)[nH]c(N/N=C/c2c(O)n(-c3ccccc3)c(=O)c3ccccc23)n1 | 13.6 |
| Cc1cccc(OCc2nc(-c3ccccn3)n[nH]2)c1 | 7.37 |
| CCOc1ccc(N=c2cc(-c3ccc(OC)cc3)oc3ccccc23)cc1 | 50.3 |
| COc1ccc2c(c1)c(C(C)=O)c(C)n2-c1ccccc1 | 6.92 |
| CC(=O)c1ccc(OC(=O)N(c2ccccc2)c2ccccc2)cc1 | 32.9 |
| COc1ccc(C(=O)CN(C(=O)c2ccc(Cl)cc2)N2C(=O)c3ccccc3C2=O)cc1 | 22.4 |
| C/C(=N\NC(=O)c1ccncc1)c1c(O)n(-c2ccccc2)c(=O)[nH]c1=O | 3.94 |
| Cc1ccc(C(C)C)c(OCc2ccc(C(=O)N/N=C/c3ccc(C(=O)O)cc3)cc2)c1 | 49.5 |
| O=C(N/N=C/c1ccc([N+](=O)[O-])o1)c1ccccc1-n1cccc1 | 29.4 |
| CCC(C(=O)NC1C(=O)N2C(C(=O)O)=C(CSc3nnc(C)s3)CSC12)c1ccccc1 (stereo not drawn) | 1.57 |
| CCC(C)NCCOCCOc1ccc(Cl)c2ccccc12 (stereo not drawn) | 50.7 |
| Cc1c(C=O)c(C=O)c(C)n1Cc1ccccc1 | 69.3 |
| Cc1nnc(SCC2=C(C(=O)O)N3C(=O)C(NC(=O)COc4ccc(F)cc4)C3SC2)s1 (stereo not drawn) | 9.33 |
| Cc1cc(C(=O)CN2C(=O)NC(C)(CC(C)C)C2=O)c(C)n1-c1ccc2c(c1)OCO2 (stereo not drawn) | 96.4 |
| CO/N=C(\C(=O)N[C@@H]1C(=O)N2C(C(=O)O)=C(COC(C)=O)CS[C@H]12)c1csc(N)n1 (stereo in doubt) | 41.7 |
| Cc1cccc(CSc2nnc(C)c(=O)n2N)c1 | 9.9 |
| CN1c2ccccc2C(=O)NC1c1ccc([N+](=O)[O-])s1 (stereo not drawn) | 33.3 |
| Cc1cc(C)n(-c2nc3ccccc3c(=O)n2OCC(=O)N(C)C)n1 | 23.3 |
| Cc1cc(C2C(=O)c3ccccc3C2=O)c(C)c(C)c1C | 16.4 |
| CCn1cc(C(=O)O)c(=O)c2cc(F)c(N3CCN(C(=S)NC(=O)c4ccccc4C)CC3)cc21 | 16 |
| CC1(C)CC(CCNC(=O)CCl)(c2ccccc2)CCO1 (stereo not drawn) | 8.14 |

| Compound | IC90 [µM] |
| --- | --- |
| Nc1nc(Sc2ncccc2[N+](=O)[O-])n[nH]1 | 77.1 |
| O=C1OC(/C=C/c2ccccc2)=NC/1=C/c1ccco1 | 13.9 |
| C/C(=N/NC(=O)c1ccccn1)c1ccncc1 | 23.1 |
| CCOC(=O)c1cnc2cc(-c3ccc(C(C)(C)C)cc3)nn2c1N | 5.74 |
| C=C1C(=O)O[C@@H]2[C@H]1[C@@H](OC(=O)/C(C)=C/C)C/C(C)=C\C(=O)/C=C(\C)[C@@H]2O | 25.2 |
| C=CCNC1=C(Cl)C(=O)N(c2cccc(Cl)c2Cl)C1=O | 30.2 |
| CCc1cc(C(=O)O)c(NC(=O)/C=C/c2ccc(OC)cc2)s1 | 59.7 |
| C[C@H]1C=CC(=O)O[C@H]1c1ccccc1 | 49.5 |
| CC1CCCN(S(=O)(=O)c2ccc(C(=O)Nc3nnc(-c4ccncc4)o3)cc2)C1 (stereo not drawn) | 64.8 |
| C=C(C)C(=O)O[C@H]1C/C(C)=C\C(=O)/C=C(\C)[C@H](O)[C@@H]2OC(=O)C(=C)[C@@H]21 | 31.3 |
| CCOc1ccc(N2C(=O)CC(N)C2=O)cc1 (stereo not drawn) | 52.4 |
| O=C(/C=C/c1ccc([N+](=O)[O-])cc1)c1cccs1 | 12.2 |
| Cc1[nH]n(-c2ccccc2)c(=O)c1/C=N/NC(=O)c1ccoc1C | 3.01 |
| CCN(CC)C(=O)C1CCCN(c2ccc([N+](=O)[O-])cc2/C=N/NC(=O)c2cccc(O)c2)C1 (stereo not drawn) | 55.3 |
| O=C1C(Cl)=C(N2CCCCCC2)C(=O)N1c1ccc(Br)cc1 | 19.4 |
| COc1cc(/C=C/c2ccc3cccc([N+](=O)[O-])c3n2)ccc1OCC(=O)O | 12 |
| O=C(N/N=C/c1ccc(OC(=O)c2ccc3c(c2)OCO3)cc1)c1cncc(Br)c1 | 48.3 |
| COC(=O)c1sc(-c2ccc(C(C)(C)C)cc2)cc1NC(=O)CCC(=O)O | 28.7 |
| CC(O)/C=C/c1ccc2ccccc2n1 (stereo not drawn) | 57.5 |
| COc1cc(C(=O)Oc2cccnc2)cc(OC)c1OC | 13.6 |
| COc1cccc(/C=N/Nc2nc(N3CCCC3)nc(N3CCCC3)n2)c1O | 36.1 |
| Cc1ccc(Nc2nc(N)nc(CC#N)n2)cc1 | 92.7 |
| CC(=O)Nc1cccc(/C(C)=N/NC(N)=S)c1 | 28.6 |

| Compound | IC90 [µM] |
| --- | --- |
| O=C(/C=C/c1cccnc1)c1ccc(O)cc1 | 50.4 |
| COc1ccc(-c2cc(C(F)F)nc(-n3nc(C)cc3C)n2)cc1 | 54.1 |
| O=C(Nc1cccc(Cl)c1N1CCOCC1)c1ccc([N+](=O)[O-])o1 | 38.2 |
| O=c1oc(-c2cccs2)nc2sc3c(c12)CCCC3 | 29.7 |
| COc1ccccc1-c1cc(C(=O)Nc2c(C)n(C)n(-c3ccccc3)c2=O)no1 | 19.5 |
| C/C(=N\OCC(=O)Nc1nc2ccccc2s1)c1ccccc1 | 35.6 |
| O=C(N[C@@H](Cc1ccccc1)C(=O)CCl)OCc1ccccc1 | 46.9 |
| Cc1cc2ccccc2n1CCNC(=O)COc1ccccc1 | 42.8 |
| O=C1O/C(=C/c2ccccc2)N=C1c1ccccc1 | 28.3 |
| Cc1cc(C)cc(SCc2noc(C(=O)NC(C)C)c2C(=O)O)c1 | 27.3 |
| O=c1oc(-c2ccccc2F)nc2scc(-c3ccccc3)c12 | 3.05 |
| CC(C)(C)c1ccc(OCc2ccc(C(=O)N/N=C3\CC4CC=CC34)cc2)cc1 (stereo not drawn) | 45.3 |
| CCN(CC)S(=O)(=O)c1ccc(N/N=C(\C)c2ccc(OC)cc2O)nc1 | 10.4 |
| CCCCC12CN3CC(C)(CN(C1)C3c1ccc([N+](=O)[O-])o1)C2=O (stereo not drawn) | 23.5 |
| O=C(Nc1ccc2nc3n(c(=O)c2c1)CCCC3)c1cc([N+](=O)[O-])ccc1F | 91 |
| O=C1OC(c2ccco2)=N/C1=C\c1ccc(-c2cccc(C(F)(F)F)c2)o1 | 53.4 |
| Cc1[nH]n(-c2ccccc2)c(=O)c1/C=N/NC(=O)c1cccc([N+](=O)[O-])c1 | 70.7 |
| Cc1cccc(C)c1OCC(=O)NNC(=O)CNC(=O)c1ccc(OC(F)F)cc1 | 98.1 |
| O=[N+]([O-])c1cc(Cl)cc(/C=N/NC(=S)Nc2cc(S(=O)(=O)N3CCOCC3)ccc2Cl)c1O | 29.3 |
| O=C(O)CCN1C(=O)/C(=C/c2ccc(-c3nc4ccccc4s3)o2)SC1=S | 78.4 |
| CCCCN(CC)S(=O)(=O)c1ccc(C(=O)Nc2nnc(CSC)o2)cc1 | 31.7 |
| COc1cc2nc(N3CCN(C(=O)OCc4ccccc4)[C@H](C(=O)NC(C)(C)C)C3)nc(N)c2cc1OC | 84 |
| COC(=O)C1=C(C)NC(=O)/C1=C\c1cc(C)n(-c2c(C)cccc2C)c1C | 99.8 |

| Compound | IC90 [µM] |
| --- | --- |
| O=C(Cc1ccc(Cl)cc1Cl)Nc1ccc(OC(F)F)c(Cl)c1 | 13.7 |
| O=C(CC12CC3CC(CC(C3)C1)C2)NCc1ccc(F)cc1 | 10.4 |
| COc1ccc(C(=O)NC(=S)Nc2ccc(S(=O)(=O)Nc3cc(C)on3)cc2)cc1OC | 29 |
| O=C(CCl)N(c1ccccc1)C1CCS(=O)(=O)C1 (stereo not drawn) | 13.9 |
| O=C(NN1C(=O)C2C(C1=O)C1C=CC2C12CC2)c1ccncc1 (stereo not drawn) | 13.9 |
| CCCCNC(=O)c1onc(CSc2ccccc2CC)c1C(=O)O | 23.7 |
| OCCCc1cn(-c2ccccc2)c2ccccc12 | 60.8 |
| COc1ccc(N2C(=O)NC(=O)/C(=C\c3ccc([N+](=O)[O-])s3)C2=O)cc1 | 21.3 |
| CC/C(=N\NC(=O)c1ccc(-c2ccccc2)cc1)C12CC3CC(CC(C3)C1)C2 | 43.7 |
| COCCCn1c(=O)/c(=C\c2cccc(OC)c2OC)s/c1=C(/C#N)C(=O)Nc1ccc(C(=O)O)cc1 | 24.6 |
| NNC(=O)c1cccc(O)c1 | 73.9 |
| CC(=O)Nc1ccc(Nc2ncc([N+](=O)[O-])c(Nc3ccc(NC(C)=O)cc3)n2)cc1 | 45.5 |
| O=C1S/C(=C\C=C\c2ccco2)C(=O)N1c1ccccc1 | 77.6 |
| CCOc1ccc2nc(SC3CC(=O)N(c4cccc(OC)c4)C3=O)sc2c1 (stereo not drawn) | 25.7 |
| COC(=O)CNC(c1ccccc1Cl)c1cc(Br)ccc1NC(=O)CCN1CCOCC1 (stereo not drawn) | 34.3 |
| COc1cc(C(=O)N/N=C/c2ccc(OC(=O)c3cccc(C)c3)cc2)ccc1O | 53.4 |
| Cc1onc(-c2ccccc2)c1C(=O)Nc1ccc(-c2nnc3n2CCCCC3)cc1 | 38.6 |
| O=C(N/N=C/c1c(O)n(Cc2ccc(F)cc2)c(=S)[nH]c1=O)c1ccncc1 | 9.8 |
| O=C(/C=C/c1ccccn1)c1cc(Br)ccc1O | 45.1 |
| O=c1oc(-c2ccco2)nc2sc3c(c12)CCCCC3 | 38.5 |
| Cc1ccc(C2=NN3C(=O)c4ccccc4C3C2)cc1 (stereo not drawn) | 35.1 |
